Laboratory results: patent publication US9994571B2, “10-substituted morphinan hydantoins” (Purdue Pharma L.P., priority 2013, dated 2018)
Like-named read-outs stand apart in the source and are kept apart here.

Legend:
[1] = target: T1, μ-opioid receptor (Homo sapiens (Human), UniProt P35372); experiment: μ-opioid receptor radioligand dose-displacement binding assay ([3H]-diprenorphine); settings: binding assays using HEK-293 cells; read-out: Opioid Receptor Ki (nM) μ
Description: Radioligand dose-displacement binding assays for μ-opioid receptors used 0.3 nM [^3H]-diprenorphine (Perkin Elmer, Shelton, Conn.), with […] membrane protein/well in a final volume of 500 μl binding buffer (10 mM MgCl2, 1 mM EDTA, 5% DMSO, 50 mM HEPES, pH 7.4). Reactions were carried out in the absence or presence of increasing concentrations of unlabeled naloxone. All reactions were conducted in 96-deep well polypropylene plates for 2 hours at room temperature. Binding reactions were terminated by rapid filtration onto 96-well Unifilter GF/C filter plates (Perkin Elmer, Shelton, Conn.), presoaked in 0.5% polyethylenimine using a 96-well tissue harvester (Perkin Elmer, Shelton, Conn.) followed by performing three filtration washes with 500 μl of ice-cold binding buffer. Filter plates were subsequently dried at 50° C. for 2-3 hours. BetaScint scintillation cocktail (Perkin Elmer, Shelton, Conn.) was added (50 μl/well), and plates were counted using a Packard Top-Count for 1 min/well. The data were analyzed using the one-site competition curve fitting functions in GraphPad PRISM™ v. 3.0 or higher (San Diego, Calif.), or an in-house function for one-site competition curve-fitting.
(§1) In TABLE 1, binding affinity of certain Compounds of the Invention to the μ- and κ-opioid receptors was determined as described above for binding assays using HEK-293 cells.

[2] = target: T2, κ opioid receptor (Homo sapiens (Human), UniProt P41145); experiment: κ-opioid receptor radioligand dose-displacement binding assay ([3H]-U69,593); settings: binding assays using HEK-293 cells; read-out: Opioid Receptor Ki (nM) κ
Description: Membranes from HEK-293 cells, CHO or U-2 OS cells expressing the recombinant human κ opioid receptor (κ) were prepared by lysing cells in ice cold hypotonic buffer (2.5 mM MgCl2, 50 mM HEPES, pH 7.4) (10 mL/10 cm dish) followed by homogenization with a tissue grinder/Teflon pestle. Membranes from a cell line naturally expressing kappa opioid receptor can also be used. Membranes were collected by centrifugation at 30,000×g for 15 min at 4° C. and pellets were resuspended in hypotonic buffer to a final concentration of 1-3 mg/mL. Protein concentrations were determined using the BioRad protein assay reagent with bovine serum albumen as standard. Aliquots of K receptor membranes were stored at −80° C.
Radioligand dose displacement assays used 0.4 nM [^3H]-U69,593 (GE Healthcare, Piscataway, N.J.; 40 Ci/mmole) with 15 μg membrane protein (recombinant κ opioid receptor expressed in HEK 293 cells; in-house prep) in a final volume of 200 μl binding buffer (5% DMSO, 50 mM Trizma base, pH 7.4). Non-specific binding was determined in the presence of 10 μM unlabeled naloxone or U69,593. All reactions were performed in 96-well polypropylene plates for 1 hour at a temperature of about 25° C. Binding reactions were terminated by rapid filtration onto 96-well Unifilter GF/C filter plates (Perkin Elmer, Shelton, Conn.) presoaked in 0.5% polyethylenimine (Sigma). Harvesting was performed using a 96-well tissue harvester (Perkin Elmer, Shelton, Conn.) followed by five filtration washes with 200 μl ice-cold binding buffer. Filter plates were subsequently dried at 50° C. for 1-2 hours. Fifty μl/well scintillation cocktail (Perkin Elmer, Shelton, Conn.) was added and plates were counted in a Packard Top-Count for 1 min/well.
as §1

[3] = target: T1, μ-opioid receptor; experiment: μ-opioid receptor [35S]GTPγS functional assay; format: biochemical
Description: [^35S]GTPγS functional assays were conducted using freshly thawed μ-receptor membranes prepared in-house from a cell line expressing recombinant μ opioid receptor in a HEK-293, CHO or U-2 OS cell background, or purchased from a commercial source (Perkin Elmer, Shelton, Conn.; or DiscovRx, Fremont, Calif.). Assay reactions were prepared by sequentially adding the following reagents to binding buffer (100 mM NaCl, 10 mM MgCl2, 20 mM HEPES, pH 7.4) on ice (final concentrations indicated): membrane protein (0.026 mg/mL), saponin ([…]), GDP ([…]) and [^35S]GTPγS (0.20 nM; Perkin Elmer, Shelton, Conn.). The prepared membrane solution (190 l/well) was transferred to 96-shallow well polypropylene plates containing 10 μl of 20× concentrated stock solutions of the agonist [D-Ala^2, N-methyl-Phe^4 Gly-ol^5]-enkephalin (DAMGO) prepared in dimethyl sulfoxide (DMSO). Plates were incubated for 30 min at about 25° C. with shaking. Reactions were terminated by rapid filtration onto 96-well Unifilter GF/B filter plates (Perkin Elmer, Shelton, Conn.) using a 96-well tissue harvester (Perkin Elmer, Shelton, Conn.) followed by three filtration washes with 200 μl of ice-cold wash buffer (10 mM NaH2PO4, 10 mM Na2HPO4, pH 7.4). Filter plates were subsequently dried at 50° C. for 2-3 hours. BetaScint scintillation cocktail (Perkin Elmer, Shelton, Conn.) was added (50 μl/well) and plates were counted using a Packard Top-Count for 1 min/well. Data were analyzed using the sigmoidal dose-response curve fitting functions in GraphPad PRISM v. 3.0, or an in-house function for non-linear, sigmoidal dose-response curve-fitting.
μ GTP EC50 is the concentration of a compound providing 50% of the maximal response for the compound at a μ-opioid receptor.
μ GTP Emax (%) is the maximal effect elicited by a compound relative to the effect elicited by DAMGO, a standard μ agonist. Generally, the μ GTP Emax (%) value measures the efficacy of a compound to treat or prevent pain or other Conditions.
(§2) In TABLE 2, activity response of certain Compounds of the Invention to the μ- and κ-opioid receptors was determined as described above for functional assays using U-2 OS cells.

[4] = target: T2, κ opioid receptor; experiment: κ-opioid receptor [35S]GTPγS functional assay; format: biochemical
Description: Functional [^35S]GTPγS binding assays were conducted as follows. κ opioid receptor membrane solution was prepared by sequentially adding final concentrations of 0.026 μg/μl κ membrane protein (in-house), 10 μg/mL saponin, 3 μM GDP and 0.20 nM [^35S]GTPγS to binding buffer (100 mM NaCl, 10 mM MgCl2, 20 mM HEPES, pH 7.4) on ice. The prepared membrane solution (190 μl/well) was transferred to 96-shallow well polypropylene plates containing 10 μl of 20× concentrated stock solutions of agonist prepared in DMSO. Plates were incubated for 30 min at a temperature of about 25° C. with shaking. Reactions were terminated by rapid filtration onto 96-well Unifilter GF/B filter plates (Perkin Elmer, Shelton, Conn.) using a 96-well tissue harvester (Packard) and followed by three filtration washes with 200 μl ice-cold binding buffer (10 mM NaH2PO4, 10 mM Na2HPO4, pH 7.4). Filter plates were subsequently dried at 50° C. for 2-3 hours. Fifty μl/well scintillation cocktail (Perkin Elmer, Shelton, Conn.) was added and plates were counted in a Packard Top-Count for 1 min/well.
κ GTP EC50 is the concentration of a compound providing 50% of the maximal response for the compound at a K receptor.
κ GTP Emax (%) is the maximal effect elicited by a compound relative to the effect elicited by U69,593.
as §2

[5] = functional assays using U-2 OS cells, relative to the effect elicited by DAMGO
[6] = functional assays using U-2 OS cells, relative to the effect elicited by U69,593

Compound	Ki [1]	Ki [2]	EC50 [3]	Emax [3, 5]	EC50 [4]	Emax [4, 6]	EC50 ([3]; functional assays using U-2 OS cells, read-out: Opioid Receptor μ EC50)	Opioid Receptor μ Emax (%) [3, 5]	EC50 ([4]; functional assays using U-2 OS cells, read-out: Opioid Receptor κ EC50)	Opioid Receptor κ Emax (%) [4, 6]
O=C1NC(=O)[C@@]2(CC[C@@]3(O)[C@H]4C(=O)c5ccc(O)cc5[C@@]3(CCN4CC3CC3)C2)N1 [Compound 13, (4bR,4′S,8aS,9S)-11-(cyclopropylmethyl)-3,8a-dihydroxy-7,8,8a,9-tetrahydrospiro[9,4b-(epiminoethano)phenanthrene-6,4′-imidazolidine]-2′,5′,10(5H)-trione]	472 ± 40.8 nM	12.2 ± 0.61 nM	37.5 ± 6.18 nM	61.3 ± 5.78%	8.79 ± 1.26 nM	106 ± 2.52%	–	–	–	–
(4bR,4′S,8aS,9S,10R)-11-(cyclopropylmethyl)-10-fluoro-8a-hydroxy-3-methoxy-5,7,8,8a,9,10-tetrahydrospiro [9,4b-(epiminoethano)phenanthrene-6,4′-imidazolidine]-2′,5′-dione [Compound 18]	–	–	–	–	–	–	1550 ± 184 nM	14.7 ± 0.33%	1480 ± 125 nM	81.7 ± 0.88%
